Data reported in ChEMBL document CHEMBL5316313, “Discovery of Novel 3-Phenylpiperidine Derivatives Targeting the β-Catenin/B-Cell Lymphoma 9 Interaction as a Single Agent and in Combination with the Anti-PD-1 Antibody for the Treatment of Colorectal Cancer” (J Med Chem, 2023).
Calls of active or inactive are those of the source. The calls are words filed in the database; no cut-off is given here.

Legend:
[1] = target: T1, beta-catenin-B-cell lymphoma 9 protein complex (Homo sapiens, UniProt P35222); assay: Inhibition of beta-catenin/BCL9 protein-protein interaction in Wnt-dependent human HCT-116 cells assessed as reduction in Axin2 expression level by qRT-PCR assay; assay type: cell-based
T1 sequence (P35222 whole entry): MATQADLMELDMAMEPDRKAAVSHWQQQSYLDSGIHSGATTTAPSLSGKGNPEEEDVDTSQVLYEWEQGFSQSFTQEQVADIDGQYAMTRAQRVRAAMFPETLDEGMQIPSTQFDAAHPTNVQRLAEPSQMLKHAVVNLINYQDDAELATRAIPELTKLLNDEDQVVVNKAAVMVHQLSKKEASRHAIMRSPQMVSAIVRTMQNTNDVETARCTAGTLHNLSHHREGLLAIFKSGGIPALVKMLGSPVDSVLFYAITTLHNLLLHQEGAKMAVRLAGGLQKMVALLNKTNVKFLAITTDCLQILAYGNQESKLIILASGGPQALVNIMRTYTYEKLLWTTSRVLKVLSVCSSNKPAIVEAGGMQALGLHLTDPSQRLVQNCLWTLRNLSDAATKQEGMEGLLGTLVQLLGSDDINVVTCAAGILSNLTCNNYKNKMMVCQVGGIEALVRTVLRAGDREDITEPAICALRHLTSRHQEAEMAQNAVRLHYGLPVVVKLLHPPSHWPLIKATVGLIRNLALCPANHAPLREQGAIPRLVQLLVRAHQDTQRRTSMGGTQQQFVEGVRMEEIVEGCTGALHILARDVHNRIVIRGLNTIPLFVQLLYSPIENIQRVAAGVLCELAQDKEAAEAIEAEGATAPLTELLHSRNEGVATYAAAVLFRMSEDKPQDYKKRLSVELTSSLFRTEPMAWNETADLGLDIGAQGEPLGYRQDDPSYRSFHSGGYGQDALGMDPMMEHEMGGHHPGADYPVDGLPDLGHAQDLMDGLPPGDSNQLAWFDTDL
T1 sequence (O00512 whole entry): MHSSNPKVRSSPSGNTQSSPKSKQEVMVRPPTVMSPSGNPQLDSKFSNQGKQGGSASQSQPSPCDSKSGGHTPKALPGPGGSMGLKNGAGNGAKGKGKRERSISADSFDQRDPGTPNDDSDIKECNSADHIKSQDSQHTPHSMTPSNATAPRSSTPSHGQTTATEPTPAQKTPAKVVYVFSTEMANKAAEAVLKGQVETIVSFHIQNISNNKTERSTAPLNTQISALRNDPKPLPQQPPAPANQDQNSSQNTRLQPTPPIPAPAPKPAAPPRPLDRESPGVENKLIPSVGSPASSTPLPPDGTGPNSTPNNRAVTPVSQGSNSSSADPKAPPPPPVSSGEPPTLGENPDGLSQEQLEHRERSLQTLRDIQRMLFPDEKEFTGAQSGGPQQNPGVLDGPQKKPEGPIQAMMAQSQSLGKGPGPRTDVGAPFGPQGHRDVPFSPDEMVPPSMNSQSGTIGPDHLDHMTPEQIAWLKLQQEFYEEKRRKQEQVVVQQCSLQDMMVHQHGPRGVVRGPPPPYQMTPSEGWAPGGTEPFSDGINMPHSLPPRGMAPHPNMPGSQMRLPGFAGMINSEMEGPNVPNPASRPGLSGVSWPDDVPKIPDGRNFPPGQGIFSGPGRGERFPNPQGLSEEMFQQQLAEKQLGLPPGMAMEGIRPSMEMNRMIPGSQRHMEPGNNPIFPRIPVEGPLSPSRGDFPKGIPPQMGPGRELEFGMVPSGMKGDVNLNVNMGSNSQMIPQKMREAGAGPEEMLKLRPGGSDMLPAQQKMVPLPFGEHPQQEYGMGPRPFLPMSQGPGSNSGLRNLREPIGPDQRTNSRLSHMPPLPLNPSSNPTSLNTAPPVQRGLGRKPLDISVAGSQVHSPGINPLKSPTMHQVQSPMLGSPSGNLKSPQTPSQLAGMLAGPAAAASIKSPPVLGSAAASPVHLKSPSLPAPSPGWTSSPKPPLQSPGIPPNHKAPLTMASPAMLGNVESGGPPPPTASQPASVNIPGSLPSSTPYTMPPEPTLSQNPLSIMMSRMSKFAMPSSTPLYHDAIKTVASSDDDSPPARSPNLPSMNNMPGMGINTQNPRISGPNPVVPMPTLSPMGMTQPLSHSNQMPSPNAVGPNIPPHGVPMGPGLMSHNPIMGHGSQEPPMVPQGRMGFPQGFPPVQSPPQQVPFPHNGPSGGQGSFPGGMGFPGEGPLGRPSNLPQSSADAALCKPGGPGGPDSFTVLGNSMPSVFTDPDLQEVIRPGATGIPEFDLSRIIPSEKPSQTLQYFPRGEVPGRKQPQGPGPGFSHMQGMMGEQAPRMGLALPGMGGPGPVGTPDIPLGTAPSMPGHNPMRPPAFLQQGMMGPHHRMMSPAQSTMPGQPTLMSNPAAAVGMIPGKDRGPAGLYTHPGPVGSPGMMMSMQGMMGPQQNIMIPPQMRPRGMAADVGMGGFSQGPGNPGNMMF

CT26 [2] = assay: Antitumor activity in mouse CT26 cells xenografted in BALB/c mouse assessed as increase in IFNG mRNA expression level in tumor at 30 mg/kg, ip QD by qRT-PCR analysis; assay type: functional, organism-based
[3] = Clearance in Sprague-Dawley rat at 21 mg/kg, ip and measured upto 24 hrs by LC-MS analysis; assay type: ADME, organism-based; settings: in vivo
A549 = assay: Antiproliferative activity against Wnt-independent human A549 cells assessed as cell growth inhibition at 40 uM incubated for 48 hrs by CellTiter-Glo assay; assay type: functional, cell-based
CT26 [4] = assay: Antitumor activity in mouse CT26 cells xenografted in BALB/c mouse assessed as increase in granzyme B-positive CD8+ T cell infiltration into tumor at 30 mg/kg, ip QD by flow cytometry; assay type: functional, organism-based
CT26 [5] = assay: Antitumor activity in mouse CT26 cells xenografted in BALB/c mouse assessed as increase in CD8+ T cell infiltration into tumor at 30 mg/kg, ip QD by flow cytometry; assay type: functional, organism-based
[6] = Toxicity in BALB/c mouse xenografted with mouse CT26 cells assessed as pathological changes in heart at 30 mg/kg, ip QD in presence of anti-PD-1 antibody cotreatment at 10 mg/kg,ip BIW by hematoxylin and eosin staining based microscopic analysis; assay type: organism-based; settings: in vivo
[7] = Toxicity in BALB/c mouse xenografted with mouse CT26 cells assessed as body weight loss at 30 mg/kg, ip QD and measured upto 9 days in presence of anti-PD-1 antibody cotreatment at 10 mg/kg,ip BIW; assay type: organism-based; settings: in vivo, 216 h, time < 9 day
[8] = Toxicity in BALB/c mouse xenografted with mouse CT26 cells assessed as pathological changes in bone marrow at 30 mg/kg, ip QD in presence of anti-PD-1 antibody cotreatment at 10 mg/kg,ip BIW by hematoxylin and eosin staining based microscopic analysis; assay type: organism-based; settings: in vivo
CT26 [9] = assay: Antitumor activity against mouse CT26 cells xenografted in BALB/c mouse assessed as tumor growth inhibition at 30 mg/kg, ip QD and measured upto 9 days in presence of anti-PD-1 antibody cotreatment at 10 mg/kg,ip BIW; assay type: functional; settings: CT26, 216 h, time <= 9 day, read-out: TGI

Row | Compound | IC50 [1] | Activity (CT26 [2]) | CL/F [3] | Activity (A549) | Activity (CT26 [4]) | Activity (CT26 [5]) | Activity [6] | Activity [7] | Activity [8] | inhibition in vivo at 30 mg/kg (CT26 [9])
1 | O=C1[C@H](Cc2ccc(O)cc2)N2C(=O)CCN(C(=O)NCc3ccccc3)[C@H]2CN1Cc1cccc2ccccc12 | 2690 nM | – | – | – | – | – | – | – | – | –
2 | CC(C)c1ccc(-c2cccc(S(=O)(=O)N3CCCC(c4cccc(OC(C)(C)C(=O)NS(=O)(=O)c5ccc(C(F)(F)F)cc5)c4)C3)c2)cc1 (stereo not given) | – | Active | 20.1 mL/min/kg | inactive | Active | Active | Non-Toxic | Non-Toxic | Non-Toxic | 81.1%
